Legend:
Type in all cases: biochemical
[1] = system: 3′-5′ cAMP-PDE activity in bovine testis, caput, cauda and seminal vesicles homogenates; assay: 3′-5′ cAMP-PDE assay in bovine testis, caput, cauda and seminal vesicles homogenates; details: Rol 10 μM, Papa 400 nM (FIG. 3)
Description: After thoroughly vortex-agitating for about one minute, samples were centrifuged at 10 000×g for 4 minutes at room temperature. Supernatant fluid was collected and diluted in different volumes of hypotonic buffer depending on the tissue. Testis, caput and cauda homogenates were diluted in 1 mL of hypotonic buffer while seminal vesicle homogenates were diluted in 2 mL of hypotonic buffer. Homogenates were kept on ice until subjected to PDE assay. The cAMP enzymatic assay (PDE assay) was conducted as previously described ([…]. et al., (2006). BMC developmental biology 6, 47). […] J. et al., (1979). Adv Cyclic Nucleotide Res 10, 69-92) with minor modifications. […] Measurements were also performed in the presence of PDE inhibitors: […] Cilostamide and Rolipram were purchased from Biomol. […] Each PDE assay was performed in triplicate for each experiment and each experiment was repeated at least three times. As described ([…]. et al., (2009). […] IBMX-sensitive PDE5 and PDE6 and IBMX-insensitive PDE9 activities are absent from these groups because cGMP is the specific substrate and then are not detected in the cAMP-PDE assay. […] J Dairy Sci 92, 3757-3765; […]., et al. (2007). Endocrinology 148, 1858-1867; Siuciak, J. A. et al., (2006). Neuropharmacology 51, 386-396).

[2] = system: 3′-5′ cAMP-PDE activity in human seminal plasma; assay: 3′-5′ cAMP-PDE assay with family-specific PDE inhibitors in human seminal plasma; details: fresh human seminal plasma; Rolipram 10 μM, Papaverine 400 nM (FIG. 19)
Description: A certain amount of complete ejaculate was kept to isolate spermatozoa from seminal plasma. This portion was centrifuged at 400×g during 10 minutes at room temperature to gently pull down spermatozoa. Supernatant was transferred and centrifuged again at 6 000×g at 4° C. during 20 minutes to pull down any remaining spermatozoa. Supernatant was then transferred and centrifuged at 6 000×g at 4° C. during 20 minutes to remove any remaining debris. SP samples were kept on ice until used for PDE assay and stored at -80° C. for further characterization. The cAMP enzymatic assay (PDE assay) was conducted as previously described ([…]. et al., (2006). BMC developmental biology 6, 47). […] J. et al., (1979). Adv Cyclic Nucleotide Res 10, 69-92) with minor modifications. […] Measurements were also performed in the presence of PDE inhibitors: […] Cilostamide and Rolipram were purchased from Biomol. […] Each PDE assay was performed in triplicate for each experiment and each experiment was repeated at least three times. As described ([…]. et al., (2009). […] IBMX-sensitive PDE5 and PDE6 and IBMX-insensitive PDE9 activities are absent from these groups because cGMP is the specific substrate and then are not detected in the cAMP-PDE assay. […] J Dairy Sci 92, 3757-3765; […]., et al. (2007). Endocrinology 148, 1858-1867; Siuciak, J. A. et al., (2006). Neuropharmacology 51, 386-396).

[3] = system: 3′-5′ cAMP-PDE activity in human spermatozoa; assay: 3′-5′ cAMP-PDE assay with family-specific PDE inhibitors in human spermatozoa; details: 95% fractionation method, papaverine 400 nM (FIG. 18)
Description: Ejaculates were obtained by masturbation from healthy donors after a minimum of 2 days of sexual abstinence. After ejaculation, semen was kept at room temperature to allow liquefaction. To prepare human ejaculate, three different fractionation methods were used: “G2 method”, “40-80% fractionation” or “95% fractionation”.
For “G2 method”, according to the ejaculate volume, approximately 1 ml of semen was added to 5 ml of isotonic solution: HEPES-buffered saline (HBS: 25 mM Hepes, 130 mM NaCl, 4 mM KCl, 0.5 mM MgCl2, 14 mM fructose, pH 7.6) in a 15 mL falcon tube to wash the spermatozoa from the seminal plasma. […] Then, the samples were vortex-agitated for 30 sec and kept on the ice until ready to run the assay. The concentration of sperm cells was measured according to hemacytometer method. […]
The cAMP enzymatic assay (PDE assay) was conducted as previously described (Sasseville, M. et al., (2006). BMC developmental biology 6, 47). […] 3′-5′ cAMP-PDE activity was assessed at 34° C. in 200 μL final volume using 1 μM cAMP as substrate (Thompson, W. J. et al., (1979). Adv Cyclic Nucleotide Res 10, 69-92) with minor modifications. […] Knowing the exact concentrations of spermatozoa in each SP sample, total 3′-5′ cAMP-PDE activity was reported as the quantity of cAMP (fMol) hydrolysed per minute per the number of spermatozoa (fMol/min/10^6 spz). […]

`COc1ccc(Cc2nccc3cc(OC)c(OC)cc23)cc1OC` [Papaverine] was tested. Which “Inhibitor-sensitive PDE activity in bovine male reproductive tissues (in words)” value [1] did it give?
The value was “low percentage”.

What about the “Inhibitor-sensitive PDE activity in human seminal plasma (in words)” value [2] of the same molecule?
Its value is “low percentage”.

And the “Share of cAMP-PDE activity that is papaverine-sensitive” value [3]?
Its value is “more than 50%”.

Source: patent US20120225417A1, “Methods, Compositions and Kits for the Evaluation and Preservation of Sperm” (I'Alliance Boviteq Inc., priority 2011, published 2012)
